# Source: patent publication US4476122A, “Alkyloximes of 7-amino-thiazolyl-acetamido-cephalosporanic acids” (Roussel Uclaf, priority 1976, dated 1984)
# Read-outs that look alike come from different tables or passages of the source.
# Assays:
# [1] = test system: Klebsiella pneumonia 52,145; test: Experimental infection with Klebsiella pneumonia in mice (D); assay type: in vivo
# Experimental: The activity of the products of Examples 19 and 21 was studied on an experimental infection of Klebsiella pneumonia in mice. Groups of 10 male mice weighing 21.5 g received intraperitoneally 0.5 ml of a 24 hour culture in nutritive media of Klebsiella pneumonia 52,145 diluted by 1/1000 with distilled water. The products were administered subcutaneously 1,5 and 24 hours after the injection and the number of dead mice were determined using 10th days.
# [2] = test system: Proteus vulgaris (indol+) A 232; test: MIC, liquid medium dilution; assay type: cell-based
# Experimental: (§1) The method used was a dilution of a liquid medium where a series of tubes received the same quantity of a sterile nutritive media and increasing doses of the test compounds were placed therein. Then each tube was seeded with a bacterial strain and was incubated for 24 or 48 hours at 37° C. in an oven. The increasing inhibition was determined by transillumination to determine the minimum inhibiting concentration (MIC in μg/ml) and the results are reported in the following Tables.
# [3] = test system: Serratia Resistant Gentamicine 2 532; test: MIC, liquid medium dilution; assay type: cell-based
# Experimental: as §1
# [4] = test system: Escherichia Coli Resistant Gentamicine, Tobramycine R 55 123 D; test: MIC, liquid medium dilution; assay type: cell-based
# Experimental: as §1
# [5] = test system: Klebsiella pneumoniae 2 536 Resistant Gentamicine; test: MIC, liquid medium dilution; assay type: cell-based
# Experimental: as §1
# [6] = test system: Salmonella typhimurium 420; test: MIC, liquid medium dilution; assay type: cell-based; conditions: Salmonella enterica
# Experimental: as §1
# [7] = test system: Proteus mirabilis (indol-) A 235; test: MIC, liquid medium dilution; assay type: cell-based; conditions: read-out: MIC
# Experimental: as §1
# [8] = test system: Klebsiella pneumoniae Exp. 52 145; test: MIC, liquid medium dilution; assay type: cell-based; conditions: read-out: MIC
# Experimental: as §1
# [9] = test system: Streptococcus pyogenes A 561; test: MIC, liquid medium dilution; assay type: cell-based
# Experimental: as §1
# [10] = test system: Staphylococcus aureus exp. n° 54 146; test: MIC, liquid medium dilution; assay type: cell-based
# Experimental: as §1
# [11] = test system: Escherichia Coli Sensitive Tetracycline ATCC 9 637; test: MIC, liquid medium dilution; assay type: cell-based
# Experimental: as §1
# [12] = test system: Streptococcus faecalis 5 432; test: MIC, liquid medium dilution; assay type: cell-based
# Experimental: as §1
# [13] = test system: Escherichia Coli Resistant Tetracycline ATCC 11 303; test: MIC, liquid medium dilution; assay type: cell-based
# Experimental: as §1
# [14] = test system: Streptococcus faecalis 99 F 74; test: MIC, liquid medium dilution; assay type: cell-based; conditions: Enterococcus faecalis
# Experimental: as §1
# [15] = test system: Escherichia Coli Exp. TO26 B6; test: MIC, liquid medium dilution; assay type: cell-based
# Experimental: as §1
# [16] = test system: Staphylococcus aureus ATCC 6 538 Pen-Sensitive; test: MIC, liquid medium dilution; assay type: cell-based
# Experimental: as §1
# [17] = test system: Bacillus subtilis ATCC 6 633; test: MIC, liquid medium dilution; assay type: cell-based
# Experimental: as §1
# [18] = test system: Providencia Du 48; test: MIC, liquid medium dilution; assay type: cell-based
# Experimental: as §1
# [19] = test system: Staphylococcus aureus UC 1 128 Pen-Resistant; test: MIC, liquid medium dilution; assay type: cell-based
# Experimental: as §1
compound,measurement,setting,value
"CO/N=C(\C(=O)NC1C(=O)N2C(C(=O)O)=C(CSc3nnc(C)s3)CS[C@H]12)c1csc(N)n1 (stereo partly drawn) [Example 19, sodium 7-[{2-(2-amino-4-thiazolyl)-2-methoxyiminoacetyl}amino]-3-[(2-methyl-1,3,4-thiadiazol-5-yl)-thiomethyl]-ceph-3-eme-4-carboxylate]",Mice alive on the 10th day,"[1]; subcutaneous, 0,1 mg",9/10
same,Mortality after 6eJ (number of dead of 10),"[1]; subcutaneous, 0,1 mg",1
same,Mice alive on the 10th day,"[1]; subcutaneous, 0,05 mg",6/10
same,Mortality after 4eJ (number of dead of 10),"[1]; subcutaneous, 0,05 mg",1
same,Mortality after 5eJ (number of dead of 10),"[1]; subcutaneous, 0,05 mg",2
same,Mortality after 7eJ (number of dead of 10),"[1]; subcutaneous, 0,05 mg",1
same,Mice alive on the 10th day,"[1]; subcutaneous, 0,5 mg",10/10
same,Mice alive on the 10th day,"[1]; subcutaneous, 0,25 mg",10/10
same,Mice alive on the 10th day,"[1]; subcutaneous, 1 mg",10/10
"CO/N=C(/C(=O)NC1C(=O)N2C(C(=O)O)=C(C)CS[C@H]12)c1csc(N)n1 (stereo partly drawn) [Example 15, 7-[{2-(2-amino-4-thiazolyl)-2-methoxyiminoacetyl}amino]-3-methyl-ceph-3-eme-4-carboxylic acid]",MIC,[2]; 24 h,> 100 µg/mL
same,MIC,[2]; 48 h,> 100 µg/mL
same,MIC,[3]; 24 h,> 100 µg/mL
same,MIC,[3]; 48 h,> 100 µg/mL
same,MIC,[4]; 24 h,> 100 µg/mL
same,MIC,[4]; 48 h,> 100 µg/mL
same,MIC,[5]; 24 h,> 100 µg/mL
same,MIC,[5]; 48 h,> 100 µg/mL
same,MIC,[6]; 24 h,> 100 µg/mL
same,MIC,[6]; 48 h,> 100 µg/mL
same,MIC,[7]; 24 h,20 µg/mL
same,MIC,[7]; 48 h,40 µg/mL
same,MIC,"[8]; EXP.52145, 24 h",100 µg/mL
same,MIC,"[8]; EXP.52145, 48 h",100 µg/mL
same,MIC,"[9]; A561, 24 h",2 µg/mL
same,MIC,"[9]; A561, 48 h",3 µg/mL
same,MIC,[10]; 24 h,> 100 µg/mL
same,MIC,[10]; 48 h,> 100 µg/mL
same,MIC,"[11]; ATCC9, 24 h",> 100 µg/mL
same,MIC,"[11]; ATCC9, 48 h",> 100 µg/mL
same,MIC,"[12]; Enterococcus faecalis, 5432, 24 h",> 100 µg/mL
same,MIC,"[12]; Enterococcus faecalis, 5432, 48 h",> 100 µg/mL
same,MIC,"[13]; ATCC11, 24 h",> 100 µg/mL
same,MIC,"[13]; ATCC11, 48 h",> 100 µg/mL
same,MIC,"[14]; 99F74, 24 h",> 100 µg/mL
same,MIC,"[14]; 99F74, 48 h",> 100 µg/mL
same,MIC,[15]; 24 h,> 100 µg/mL
same,MIC,[15]; 48 h,> 100 µg/mL
same,MIC,"[16]; ATCC6, 24 h",> 100 µg/mL
same,MIC,"[16]; ATCC6, 48 h",> 100 µg/mL
same,MIC,"[17]; ATCC6, 24 h",> 100 µg/mL
same,MIC,"[17]; ATCC6, 48 h",> 100 µg/mL
same,MIC,"[18]; DU48, 24 h",> 100 µg/mL
same,MIC,"[18]; DU48, 48 h",> 100 µg/mL
same,MIC,"[19]; UC1, 24 h",> 100 µg/mL
same,MIC,"[19]; UC1, 48 h",> 100 µg/mL
